Values after ≈ are worked out from the molar mass of the structure shown.
Legend:
Piricularia oryzae = assay: microbe, parasite or virus in culture; type: cell-based; details: 96 h, pH 6.4
Mycoplasma gallisepticum [1] = assay: Growth inhibition of Mycoplasma gallisepticum (text summary of Table 1); type: cell-based; details: Mycoplasmoides gallisepticum, 192 h, read-out: growth inhibited at a concentration
Procedure: H Hokken PPLO agar (pH 7.8, 8 days, 37° C.)
(§1) E Eiken PPLO agar (pH 7.8, 8 days, 37° C.)
(§2) MIC Minimal inhibitory concentration

Trichophyton ferrugineum = assay: Antimicrobial spectrum, MIC, potato agar; type: cell-based; details: Microsporum ferrugineum, 96 h; potato agar (pH 6.4, 4 days, 27° C.)
Mycoplasma gallisepticum [2] = assay: Therapeutic effect on chronic respiratory disease of chickens; type: in vivo
Mycoplasma pneumonia = assay: Antimicrobial spectrum, MIC, PPLO agar; type: cell-based; details: 192 h, Eiken PPLO agar (pH 7.8, 8 days, 37° C.)
Procedure: as §1, §2

Candida albicans = assay: Antimicrobial spectrum, MIC, potato agar; type: cell-based; details: 96 h, potato agar (pH 6.4, 4 days, 27° C.)
[3] = Conversion of nanaomycin B into nanaomycin A depending on pH; type: physicochemical
Procedure: Nanaomycin B (200 mg) is dissolved in 60 ml of 0.1 N sodium hydroxide and the solution is allowed to stand for 10 minutes. After adjusting to pH 2.0 with 6 N hydrochloric acid, the product is extracted with ethyl acetate. The extract is evaporated and orange yellow needles are obtained from an ethanol solution of the product. The compound is identified as nanaomycin A by the melting point, IR spectrum and thin-layer chromatography.

[4] = tested on: Aspergillus fumigatus IAM 2612; assay: Antimicrobial spectrum, MIC, potato agar; type: cell-based; details: IAM2612, 96 h, potato agar (pH 6.4, 4 days, 27° C.)
Solubility = type: physicochemical
Trichophyton schoenleini = assay: Antimicrobial spectrum, MIC, potato agar; type: cell-based; details: 96 h, potato agar (pH 6.4, 4 days, 27° C.)
Pseudomonas aeruginosa = assay: Antimicrobial spectrum, MIC, nutrient agar; type: cell-based; details: 48 h, nutrient agar (pH 7.0, 2 days, 37° C.)

CC1OC(CC(=O)O)CC2C(=O)c3cccc(O)c3C(=O)C12O (stereo not shown) [Nanaomycin B]
MIC (Piricularia oryzae): 15.6 µg/mL (≈ 48.7 µM) | MIC (Mycoplasma gallisepticum [1]): ≤ 0.1 µg/mL | MIC (Trichophyton ferrugineum): 12.5 µg/mL (≈ 39 µM) | therapeutic effect on chronic respiratory disease (Mycoplasma gallisepticum [2]): therapeutic effect | MIC (Mycoplasma pneumonia): 0.05 µg/mL (≈ 0.156 µM) | MIC (Candida albicans): 31.2 µg/mL (≈ 97.4 µM) | conversion into nanaomycin A in an acidic or neutral condition ([3]; acidic or neutral condition): gradually converted | conversion into nanaomycin A in an alkaline condition ([3]; alkaline condition): easily converted into nanaomycin A | MIC [4]: > 100 µg/mL | Solubility in methanol, ethanol, ethylacetate, chloroform, acetone and ether (Solubility): Easily soluble | Solubility in n-hexane, petroleum ether and water (Solubility): Insoluble | MIC (Trichophyton schoenleini): 3.1 µg/mL (≈ 9.68 µM) | MIC (Pseudomonas aeruginosa): > 500 µg/mL
